Results on 8 compounds are retold here after patent USRE41226E1, “Compounds having reversible inhibiting activity of carnitine palmitoyl-transferase” (Sigma-Tau Industrie Farmaceutiche Riunite S.p.A., priority 1998, dated 2010).

A word on the IC50: it is the midpoint of a concentration-inhibition curve.

One test addresses T1, CPTI (Rattus norvegicus, UniProt P32198).
T1 construct: Mitochondria were isolated from liver or heart and suspended in 75 mM saccharose buffer; from tissue; host or cells: liver mitochondria of normally fed Fischer rats
T1 sequence (P32198 1-773): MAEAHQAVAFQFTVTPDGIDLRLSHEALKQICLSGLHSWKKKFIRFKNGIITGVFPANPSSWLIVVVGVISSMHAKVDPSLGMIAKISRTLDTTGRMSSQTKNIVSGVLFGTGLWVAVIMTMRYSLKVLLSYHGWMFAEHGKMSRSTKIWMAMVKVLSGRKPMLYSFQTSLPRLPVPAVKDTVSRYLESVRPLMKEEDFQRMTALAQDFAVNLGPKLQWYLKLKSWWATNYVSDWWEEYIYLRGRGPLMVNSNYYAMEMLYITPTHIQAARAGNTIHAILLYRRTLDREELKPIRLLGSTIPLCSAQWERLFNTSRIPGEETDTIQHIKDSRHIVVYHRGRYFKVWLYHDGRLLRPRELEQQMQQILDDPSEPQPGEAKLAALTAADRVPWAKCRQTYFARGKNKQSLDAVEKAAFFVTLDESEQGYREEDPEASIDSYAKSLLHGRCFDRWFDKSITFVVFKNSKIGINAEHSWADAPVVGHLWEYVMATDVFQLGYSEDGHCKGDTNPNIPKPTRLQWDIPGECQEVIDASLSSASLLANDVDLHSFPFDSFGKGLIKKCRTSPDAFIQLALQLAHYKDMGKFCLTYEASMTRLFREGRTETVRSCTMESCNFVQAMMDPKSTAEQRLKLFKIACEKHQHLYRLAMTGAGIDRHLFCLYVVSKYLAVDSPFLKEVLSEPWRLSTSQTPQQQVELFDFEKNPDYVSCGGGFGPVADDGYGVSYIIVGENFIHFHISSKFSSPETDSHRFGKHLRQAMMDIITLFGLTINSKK
Description: Determination of CPT inhibiting activity in rat liver mitochondria. The format is biochemical, Fischer rat. The settings on record: 50 μM [14C] palmitoyl-CoA, 10 mM L-carnitine, 37° C., 1 minute, read-out: IC50 of inhibition CPTI curve in rat liver mitochondria. As for the experimental part: CPT inhibition was evaluated essentially as described in Kerner, J. & Bieber, L. L. (1990) Biochemistry 29: 4326-34 on fresh mitochrondrial preparation obtained from normally fed Fischer rat liver or heart. Mitochondria were isolated from liver or heart and suspended in 75 mM saccharose buffer, 1 mM EGTA, pH 7.5. 100 μl mitochrondrial suspension, containing 50 μM [^14C] palmitoyl-CoA (specific activity […]) and 10 mM L-carnitine, were incubated at 37° C., in the presence of scalar concentrations of the test product (0-3 mM). Reaction time: 1 minute.

Test [1] concerns β-hydroxybutyrate production in rat hepatocytes. The experiment in a line: Oleate-stimulated β-hydroxybutyrate production in rat hepatocytes. The format is cell-based. The settings on record: 40 min incubation, then oleate 1 mM for 20 min, mean of three experiments, read-out: IC50 of inhibition CPTI curve of β-hydroxybutyrate production in rat hepatocytes. As for the experimental part: β-hydroxybutyrate production is an index of CPT activity. In fact, the production of ketone bodies, final products of mitochrondrial β-oxidation, is related to CPT activity.
Mitocondrial preparations, obtained according to the method by Venerando et al. (Am. J. Physiol. 266:C455-C461, 1994), were used. Hepatocytes are incubated at 37° C. in KRB bicarbonate buffer at pH 7.4, 6 mM glucose, 1% BSA in O2/CO2 95/5 atmosphere at 2.5×10^6 cells/ml. After 40 min incubation with the test compound at different concentrations, the first set of samples was taken (T0 min) and oleate was added (1 mM final in KRB+BSA 1.4%). After 20 minutes, the second withdrawal was made (T20 min)
The data are the mean of three different experiments, twice carried out.

The next test has as its system 24 hours-starved rats. The experiment in a line: Glucose and β-hydroxybutyrate in serum of fasted rats treated with CPT inhibitors. The format is in vivo, Fischer rats. The settings on record: one hour after intraperitoneal treatment, ST1326 14.5 mg/2 ml/kg, others equivalent dose. As for the experimental part: Normally fed Fischer rats were starved for 24 hours and subsequently treated with the test compounds. One hour after the treatment, the animals were sacrificed and serum concentrations of glucose and β-hydroxybutyrate were determined.
For the compound ST1326 were used doses of 14.5 mg/2 ml/kg, for other test compounds, the doses are equivalent to ST1326 one.

Another test concerns fed with high-fat diet. Description: Glucose and insulin levels in diabetic animals (high-fat diet) treated with CPT inhibitors. The format is in vivo, C57BL/6J male rats. The settings on record: 45 mg/Kg p.o. twice a day, after 20 days of treatment. As for the experimental part:
C57BL/6J male […], 5-weeks old, were provided by Ch. River. After 10 days of acclimatisation in standard conditions (22±2° C.; 55±15% humidity; 15-20/h air changes; 12 hours light-dark cycle, with 700-1900 lux) and with standard diet with 4RF21 feedstock (Mucedola), glycaemia was controlled in post-absorption state (starving from 8.30 a.m. to 4.30 p.m.). Blood withdrawal was carried out cutting the tail end. Glucose was analyzed in blood acid supernatant (HCLO4 0,375 N) with autoanalyzer Cobas Mira S with Glucose GDH Kit (Roche).
The animals were divided in two groups, 26 mice each and fed with a high-fat and a low-fat diet, respectively.
After 2 months from the start of the diet, glycaemia was tested, according to the starrting method. After about 3 months from the start of the diet, glycaemia was tested, according to the starting method and plasma insulin levels were also determined (with blood withdrawal from end tail cutting) using [125I] Rat Insulin Kit (Amersham).
One 10 mice group fed with low-fat diet and two 10-mice groups fed with the high-fat diet were selected. One of the two high fat diet was administered with ST 1327 at the dose of 45 mg/Kg in deionised H2O (p.o., twice a day, 8.30 a.m. and 5.30 p.m.).administration volume was 10 ml/Kg, the two remaining groups were treated with vehicle only. High-fat or low-fat diets were continued during the treatment.
After 20 days of treatment, glycaemia and plasma insulin were measured. After 43 days of treatment, the animals were sacrificed by decapitation in post-absorption state (fasting 8.30 a.m.-4.30 p.m.), 8 hours after the last treatment. Blood was withdrawn and serum was separated by centrifugation and stored at −80° C. Liver, heart and skeletal muscle (upper limbs) were also extracted, frozen in dry ice-acetone and kept at −80° C.

Test [2] relates to hearts perfused according to Langendorff technique. The experiment in a line: Myocardial ischemia: LDH release from Langendorff-perfused rat hearts (ischemia/reperfusion). Further details: species or system male Wistar rats. As for the experimental part:
To this end, male Wistar rats, weighing 200-225 g, provided by Charles-River, were kept at constant temperature of 23°+/−1° C., 50+/−10% relative humidity, 12 hours light-dark cycle, fed with pellet 4RF21 (Mucedola) tap water ad libitum.
The amimals were anaesthetised with sodium Pentobarbital at the dose of 70 mg/Kg i.p.. Hearts were rapidly removed and put in a cold Krebs-Henseleit solution, before incannulation of aorta e subsequent perfusion according to Langendorff technique at 37° C. with a pressure of 100 cm water.
Perfusion medium (Krebs-Henseleit) at pH 7.4 consists in: 128 mM NaCl, 4.7 mM KCl, 1 mM MgCl2, 0.4 mM Na2HP04, 20.2 mM NaHCO3, 1.3 mM CaCl2, 5 mM glucose. The medium was constantly oxygenated with carbogen (95% O2, 5% CO2).
After a 10 min “conditioning” period, hearts were perfused in a recirculant apparatus for 20 min. with the same medium containing 0.6 mM palmitate complexed with albumine (fraction V, fatty acid free), with or without the CPT inhibitor according to the present invention. By way of example ST 1364 was used at concentrations of 1 and 5 μM. After such a period ischemia was induced by reducing perfusion hydrostatic pressure from 100 cm to 20 cm for a period of 30 min. Reperfusion was started re-establishing the starting pressure conditions (100 cm).Hearts were controlled for 20 min. the inhibitor is present also during reperfusion phase.
Lactate dehydrogenases (LDH) release was monitored in the effluent in normal oxygenation conditions, during ischemia, with a withdrawal of medium at 30′, and during reperfusion, with withdrawals at 1.5, 10, 15 and 20 minutes.
Statistical analysis was carried out with Student's “t” test for non-paired data.
The number of the cases for each group is six (n=6).
For orientation: LDH leaks from cells whose membrane has failed.

For the compound `CCCCCCCCCCCCCCOP(=O)([O-])O[C@H](CC(=O)O)C[N+](C)(C)C` [SDZ-CPI-975, reference compound], the IC50 on CPTI was determined as 17.4 µM; in test [1], 3.7 µM. For the same compound, in the test on 24 hours-starved rats, the “Glu (glucose) serum concentration, Mean” value stood at 87.6. In addition, the “β-OHB serum concentration, Mean” value in the test on 24 hours-starved rats stood at 119.9.

Turning to `CCCCCCCCCNC(=O)NC(CC(=O)[O-])C[N+](C)(C)C` (centres unmarked) [ST1251, R,S-4-trimethylammonium-3-(nonylcarbamoyl)aminobutyrate], the IC50 in test [1] is 0.5 µM. In addition, in the test on 24 hours-starved rats, the “Glu (glucose) serum concentration, Mean” value is given as 76.9 and the “β-OHB serum concentration, Mean” value was 99.8.

Turning to `CCCCCCCCOC(=O)NC(CC(=O)O)C[N+](C)(C)C.[Cl-]` (centres unmarked) [ST1253, R,S-4-trimethylammonium-3-(octyloxycarbonyl)-aminobutyrate chloride], in test [1], the IC50 was found to be 0.9 µM. For the same compound, in the test with 24 hours-starved rats, the “Glu (glucose) serum concentration, Mean” value worked out at 88.2 and the “β-OHB serum concentration, Mean” value is listed as 118.8.

For the compound `CCCCCCCCCOC(=O)NC(CC(=O)[O-])C[N+](C)(C)C` (centres unmarked) [ST1285, R,S-4-trimethylammonium-3-(nonyloxycarbonyl)-aminobutyrate], the IC50 in test [1] amounted to 1.9 µM.

Take `CCCCCCCCCCCCCCNC(=O)N[C@H](CC(=O)[O-])C[N+](C)(C)C` [ST1326, R-4-trimethylammonium-3-(tetradecylcarbamoyl)amino butyrate]: the IC50 at CPTI amounted to 0.75 µM. In the test on 24 hours-starved rats, the “Glu (glucose) serum concentration, Mean” value is on record as 84.2 and the “β-OHB serum concentration, Mean” value is 133.1.

`CCCCCCCCCCCNC(=O)N[C@H](CC(=O)[O-])C[N+](C)(C)C` [ST1327, R-4-trimethylammonium-3-(undecylcarbamoyl)-aminobutyrate]: the IC50 at CPTI is 3.2 µM. In the test with 24 hours-starved rats, the “Glu (glucose) serum concentration, Mean” value came to 84.9 and the “β-OHB serum concentration, Mean” value was determined as 93.0. The compound also gave a Glucose in the test on fed with high-fat diet (High Fat diet Treated, p<0.001 against high fat diet) of 181.4 ± 9.63 mg/dL. Besides, the Insulin with fed with high-fat diet (High Fat diet Treated, p<0.01 against high fat diet) stood at 0.621 ± 0.117 ng/mL. Besides, in the test on fed with high-fat diet (high-fat diet), the “glucose levels (in words)” value is reported as “significantly decreased” and the “insulin levels (in words)” value is “significantly decreased”.

In the case of `CCCCCCCNC(=O)N[C@H](CC(=O)[O-])C[N+](C)(C)C` [ST1328, R-4-trimethylammonium-3-(heptylcarbamoyl)-aminobutyrate], in the test on 24 hours-starved rats, the “Glu (glucose) serum concentration, Mean” value turned out to be 79.5 and the “β-OHB serum concentration, Mean” value is on record as 169.2.

Take `CCCCCCCCCCS(=O)(=O)NC(CC(=O)[O-])C[N+](C)(C)C` (centres unmarked) [ST1364, R,S-4-trimethylammonium-3-(decansulfonyl)aminobutyrate]: the “LDH release in perfusate” value is reported as 275 mU/ml/min in test [2] (1 μM, Basal); 220 mU/ml/min in test [2] (1 μM, Ischemia 30′); 480 mU/ml/min in test [2] (1 μM, Reperfusion 1′); 500 mU/ml/min in test [2] (1 μM, Reperfusion 5′); 495 mU/ml/min in test [2] (1 μM, Reperfusion 10′); 510 mU/ml/min in test [2] (1 μM, Reperfusion 15′). The “LDH release in perfusate” value was 580 mU/ml/min in test [2] (1 μM, Reperfusion 20′); 220 mU/ml/min in test [2] (5 μM, Basal); 200 mU/ml/min in test [2] (5 μM, Ischemia 30′); 410 mU/ml/min in test [2] (5 μM, Reperfusion 1′); 380 mU/ml/min in test [2] (5 μM, Reperfusion 5′); 380 mU/ml/min in test [2] (5 μM, Reperfusion 10′). Moreover, the “LDH release in perfusate” value in test [2] (5 μM, Reperfusion 15′) came to 320 mU/ml/min; in test [2] (5 μM, Reperfusion 20′), 325 mU/ml/min. The “LDH release in the effluent during reperfusion (in words)” value in test [2] (5 μM, with respect to the controls) is reported as “significantly reduced”.
